Reference: US8518945B2, “Pyrrolopyrazine kinase inhibitors” (Hoffmann-La Roche Inc., priority 2010, dated 2013)

Target: T1, h-jak3(810-1124) (JAK3: Recombinant human kinase domain) (Homo sapiens, UniProt P52333)
T1 construct: jak3(810- 1124)-sf9-c; made in house; host or cells: Sf9
T1 sequence (P52333 810-1124): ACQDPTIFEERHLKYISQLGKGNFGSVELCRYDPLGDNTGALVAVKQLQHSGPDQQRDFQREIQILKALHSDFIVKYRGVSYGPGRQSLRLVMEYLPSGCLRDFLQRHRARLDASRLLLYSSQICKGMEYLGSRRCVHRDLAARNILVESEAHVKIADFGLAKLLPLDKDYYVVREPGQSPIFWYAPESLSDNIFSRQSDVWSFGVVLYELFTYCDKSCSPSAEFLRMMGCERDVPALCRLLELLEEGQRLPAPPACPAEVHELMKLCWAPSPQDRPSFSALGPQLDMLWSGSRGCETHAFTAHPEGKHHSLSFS
Test: Determination of IC50 of Janus Kinase (JAK) inhibition: JAK3 radioactive end-point 33P-ATP kinase assay
Assay type: biochemical
Conditions: no additive; ATP 1.5 uM, peptide 50 uM, 20 minutes, room temperature; read-out: Ic50 h-jak3(810-1124)-sf9-c: no additive
Source text: Determination of IC50 of Janus Kinase (JAK) Inhibition:
Enzymes and peptide substrate used are described below: • JAK1: Recombinant human kinase domain from Invitrogen (Cat # PV4774) • JAK3: Recombinant human kinase domain from Millipore (Cat # 14-629) or prepared. • JAK2: Recombinant human kinase domain from Millipore (Cat # 14-640) • Substrate: N-terminally biotinylated 14-mer peptide derived from activation loop of JAK1 with sequence of the peptide substrate: Biotin-[sequence]
Assay conditions— used are described below: • Assay Buffer: JAK Kinase Buffer: 50 mM Hepes [pH 7.2], 10 mM MgCl2, 1 mM DTT, 1 mg/ml BSA. The assay was carried out in this buffer. • Assay Format The kinase activity of all three JAK kinases was measured using a radioactive, end-point assay and with trace amounts of ^33P-ATP. The assays were carried out in 96-well polypropylene plates. Experimental Method:
All concentrations were final in the reaction mixture and all incubations were carried at room temperature. […] Final concentration of DMSO in the reaction was 10%. • 2) Compounds were preincubated with enzyme (0.5 nM JAK3 (commercially available), 0.2 nM JAK3 (prepared), 1 nM JAK2, 5 nM JAK1) for 10 minutes. • 3) Reactions were initiated by the addition of a cocktail of the two substrates (ATP and peptide premixed in the JAK Kinase Buffer). In the JAK2/JAK3 assays, ATP and the peptide were used at concentrations of 1.5 uM and 50 uM, respectively. JAK1 assay was carried out at an ATP concentration of 10 uM and a peptide concentration of 50 uM. • 4) The duration of the assay for JAK2 and JAK3 is 20 minutes. JAK1 assay was carried out for 40 minutes. With all three enzymes, reactions were terminated by the addition of 0.5M EDTA to a final concentration of 100 mM. • 5) 25 ul of terminated reactions were transferred to 150 ul of a 7.5% (v/v) slurry of streptavidin-coated sepharose beads in MgCl2- and CaCl2-free 1× Phosphate Buffered Saline containing 50 mM of EDTA in 96-well, 1.2 um MultiScreen-BV filter plates. • 6) After a 30-minute incubation, the beads were washed under vacuum with the following buffers: • a. 3 to 4 washes with 200 ul of 2M NaCl. • b. 3 to 4 washes with 200 ul of 2M NaCl plus 1% (v/v) phosphoric acid. • c. 1 wash with water. • 7) Washed plates were dried in a 60° C. oven for between 1 to 2 hours. • 8) 70 ul of Microscint 20 scintillation fluid was added to each well of filter plates and after at least 30 minutes of incubation, radioactive counts were measured in a Perkinelmer microplate scintillation counter.
Work on `Cc1nc(-c2cnc3[nH]cc(C(=O)N[C@@H](C(=O)N4CC(C#N)C4)C4CC4)c3n2)cn1CC(F)(F)F` [Example I-165, 2-[2-Methyl-1-(2,2,2-trifluoro-ethyl)-1H-imidazol-4-yl]-5H-pyrrolo[2,3-b]pyrazine-7-carboxylic acid [(R)-2-(3-cyano-azetidin-1-yl)-1-cyclopropyl-2-oxo-ethyl]-amide] yielded an IC50 of 0.68 nM. `CCn1cc(-c2cnc3[nH]cc(C(=O)N[C@@H](C(=O)N4CCC(C)(C#N)C4)C(C)(C)C)c3n2)cn1` (stereo partly drawn) [Example I-28, 2-(1-Ethyl-1H-pyrazol-4-yl)-5H-pyrrolo[2,3-b]pyrazine-7-carboxylic acid [(R)-1-(3-cyano-3-methyl-pyrrolidine-1-carbonyl)-2,2-dimethyl-propyl]-amide] showed an IC50 of 0.51 nM. `CCn1cc(-c2cnc3[nH]cc(C(=O)N[C@@H](C(=O)N4CCCC4)C4(C)CC4)c3n2)cn1` [Example I-34, 2-(1-Ethyl-1H-pyrazol-4-yl)-5H-pyrrolo[2,3-b]pyrazine-7-carboxylic acid [(R)-1-(1-methyl-cyclopropyl)-2-oxo-2-pyrrolidin-1-yl-ethyl]-amide] showed an IC50 of 0.87 nM.

Tested on: not given
Test: not given
Conditions: not given
Compound `N#CC1CN(C(=O)[C@H](NC(=O)c2c[nH]c3ncc(-c4ccccc4)nc23)C2CC2)C1` [Example 147, 2-Phenyl-5H-pyrrolo[2,3-b]pyrazine-7-carboxylic acid [(R)-2-(3-cyano-azetidin-1-yl)-1-cyclopropyl-2-oxo-ethyl]-amide] has a melting point of 200 to 202 °C. In the case of `Cc1nc(-c2cnc3[nH]cc(C(=O)N[C@@H](C(=O)N4CC(C#N)C4)C4CC4)c3n2)cn1CC(F)(F)F` [Example I-165, 2-[2-Methyl-1-(2,2,2-trifluoro-ethyl)-1H-imidazol-4-yl]-5H-pyrrolo[2,3-b]pyrazine-7-carboxylic acid [(R)-2-(3-cyano-azetidin-1-yl)-1-cyclopropyl-2-oxo-ethyl]-amide], the melting point is reported as 255 to 256 °C. Work on `O=C(N[C@@H](C(=O)N1CCCC1)C1CC1)c1c[nH]c2ncc(C3CC3)nc12` [Example 25, 2-Cyclopropyl-5H-pyrrolo[2,3-b]pyrazine-7-carboxylic acid ((R)-1-cyclopropyl-2-oxo-2-pyrrolidin-1-yl-ethyl)-amide] yielded a melting point of 254 to 256 °C. Compound `CC(C)[C@@H](NC(=O)c1c[nH]c2ncc(C3CC3)nc12)C(=O)N1CCOCC1` [Example 27, 2-Cyclopropyl-5H-pyrrolo[2,3-b]pyrazine-7-carboxylic acid [(R)-2-methyl-1-(morpholine-4-carbonyl)-propyl]-amide] has a melting point of 154 to 156 °C. For `Cc1nc(-c2cnc3[nH]cc(C(=O)N[C@@H](C(=O)N4CC(C#N)C4)C4CC4)c3n2)cn1-c1ccccc1`, the melting point was 175 to 179 °C. With `CN(C)c1ccc(-c2cnc3[nH]cc(C(=O)N[C@@H](C(=O)N4CC(C#N)C4)C4CC4)c3n2)cc1` [Example 146, 2-(4-Dimethylamino-phenyl)-5H-pyrrolo[2,3-b]pyrazine-7-carboxylic acid [(R)-2-(3-cyano-azetidin-1-yl)-1-cyclopropyl-2-oxo-ethyl]-amide] the melting point was 175 to 180 °C. Work on `CCn1cc(-c2cnc3[nH]cc(C(=O)N[C@@H](C(=O)N4CCC(C)(C#N)C4)C(C)(C)C)c3n2)cn1` (stereo partly drawn) [Example I-28, 2-(1-Ethyl-1H-pyrazol-4-yl)-5H-pyrrolo[2,3-b]pyrazine-7-carboxylic acid [(R)-1-(3-cyano-3-methyl-pyrrolidine-1-carbonyl)-2,2-dimethyl-propyl]-amide] yielded a melting point of 228 to 230 °C. In the case of `CC(C)(C)[C@@H](NC(=O)c1c[nH]c2ncc(C3CC3)nc12)C(=O)N1CCC(C#N)CC1` [Example 11, 2-Cyclopropyl-5H-pyrrolo[2,3-b]pyrazine-7-carboxylic acid [(R)-1-(4-cyano-piperidine-1-carbonyl)-2,2-dimethyl-propyl]-amide], the melting point is reported as 249 to 251 °C. For `CC[C@@H](NC(=O)c1c[nH]c2ncc(C3CC3)nc12)C(=O)N1CCCC1` [Example 23, 2-Cyclopropyl-5H-pyrrolo[2,3-b]pyrazine-7-carboxylic acid [(R)-1-(pyrrolidine-1-carbonyl)-propyl]-amide], the melting point was 240.9 to 242.5 °C. With `CCn1cc(-c2cnc3[nH]cc(C(=O)N[C@@H](C(=O)N4CCCC4)C4CC4)c3n2)cn1` [Example 4, 2-(1-Ethyl-1H-pyrazol-4-yl)-5H-pyrrolo[2,3-b]pyrazine-7-carboxylic acid ((R)-1-cyclopropyl-2-oxo-2-pyrrolidin-1-yl-ethyl)-amide] the melting point was 210 to 212 °C. In the case of `CCn1cc(-c2cnc3[nH]cc(C(=O)N[C@@H](C(=O)N4CCCC4)C4(C)CC4)c3n2)cn1` [Example I-34, 2-(1-Ethyl-1H-pyrazol-4-yl)-5H-pyrrolo[2,3-b]pyrazine-7-carboxylic acid [(R)-1-(1-methyl-cyclopropyl)-2-oxo-2-pyrrolidin-1-yl-ethyl]-amide], the melting point is reported as 218 to 220 °C. Work on `Cc1nc(-c2cnc3[nH]cc(C(=O)N[C@@H](C(=O)N4CC(C#N)C4)C(C)(C)C)c3n2)cn1-c1cc(F)cc(F)c1` [Example 136, 2-[1-(3,5-Difluoro-phenyl)-2-methyl-1H-imidazol-4-yl]-5H-pyrrolo[2,3-b]pyrazine-7-carboxylic acid [(R)-1-(3-cyano-azetidine-1-carbonyl)-2,2-dimethyl-propyl]-amide] yielded a melting point of 187 to 190 °C. In the case of `CN1CCN(c2ccc(-c3cnc4[nH]cc(C(=O)N[C@@H](C(=O)N5CC(C#N)C5)C5CC5)c4n3)cc2)CC1` [Example 144, 2-[4-(4-Methyl-piperazin-1-yl)-phenyl]-5H-pyrrolo[2,3-b]pyrazine-7-carboxylic acid [(R)-2-(3-cyano-azetidin-1-yl)-1-cyclopropyl-2-oxo-ethyl]-amide], the melting point is reported as 178 to 185 °C. Compound `CC(=O)N1CCN(c2ccc(-c3cnc4[nH]cc(C(=O)N[C@@H](C(=O)N5CC(C#N)C5)C5CC5)c4n3)cc2)CC1` [Example 143, 2-[4-(4-Acetyl-piperazin-1-yl)-phenyl]-5H-pyrrolo[2,3-b]pyrazine-7-carboxylic acid [(R)-2-(3-cyano-azetidin-1-yl)-1-cyclopropyl-2-oxo-ethyl]-amide] has a melting point of 185 to 188 °C. For `CC(C)[C@@H](NC(=O)c1c[nH]c2ncc(C3CC3)nc12)C(=O)N1CCCCC1` [Example 26, 2-Cyclopropyl-5H-pyrrolo[2,3-b]pyrazine-7-carboxylic acid [(R)-2-methyl-1-(piperidine-1-carbonyl)-propyl]-amide], the melting point was 183 to 185 °C.
